In ChEMBL document CHEMBL4421719, “Modulation of k2p channels” (2016):
The source made the active and inactive calls. The rule behind the calls is not given here.

Legend:
Type in all cases: cell-based
[1] = target: T1, Potassium channel subfamily K member 2 (Homo sapiens) (UniProt O95069); assay: Activation of K2P2.1 (unknown origin) expressed in HEK293T cells assessed as effect on channel currents by measuring half-maximal activation time at 5 to 20 uM by two-electrode voltage clamp assay relative to control
T1 sequence (whole entry): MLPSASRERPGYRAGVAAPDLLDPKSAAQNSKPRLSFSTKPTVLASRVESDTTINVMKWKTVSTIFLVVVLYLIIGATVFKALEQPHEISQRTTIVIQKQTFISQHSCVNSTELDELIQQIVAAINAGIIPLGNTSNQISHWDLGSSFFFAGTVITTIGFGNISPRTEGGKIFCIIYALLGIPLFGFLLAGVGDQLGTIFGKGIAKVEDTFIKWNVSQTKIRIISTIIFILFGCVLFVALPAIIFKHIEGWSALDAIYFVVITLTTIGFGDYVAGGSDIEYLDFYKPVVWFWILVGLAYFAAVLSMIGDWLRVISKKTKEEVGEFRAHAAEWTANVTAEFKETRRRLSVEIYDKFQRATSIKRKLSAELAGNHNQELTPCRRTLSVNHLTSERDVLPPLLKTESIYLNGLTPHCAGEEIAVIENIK

[2] = target: T1, Potassium channel subfamily K member 2 (Homo sapiens); assay: Activation of K2P2.1 (unknown origin) expressed in Xenopus oocytes assessed as effect on channel currents at -80 mV holding at 100 uM by two-electrode voltage clamp assay relative to control
[3] = target: T1, Potassium channel subfamily K member 2 (Homo sapiens); assay: Activation of K2P2.1 (unknown origin) expressed in HEK293T cell membranes in inside-out patch configuration assessed as effect on channel currents at 20 uM by two-electrode voltage clamp assay relative to control
[4] = target: T1, Potassium channel subfamily K member 2 (Homo sapiens); assay: Activation of K2P2.1 (unknown origin) expressed in Xenopus oocytes assessed as effect on channel currents at -80 mV holding by two-electrode voltage clamp assay relative to control
[5] = Activation of K2P2.1 3G mutant (unknown origin) expressed in Xenopus oocytes assessed as effect on channel currents at -80 mV holding potential by two-electrode voltage clamp assay; conditions: Homo sapiens
[6] = target: T1, Potassium channel subfamily K member 2 (Homo sapiens); assay: Activation of K2P2.1 (unknown origin) expressed in HEK293T cell membranes in inside-out patch configuration assessed as effect on channel currents by measuring time of return to baseline following compound washout at 20 uM by two-electrode voltage clamp assay relative to control
[7] = target: T2, Potassium channel subfamily K member 10 (Homo sapiens) (UniProt P57789); assay: Activation of K2P10.1 (unknown origin) expressed in Xenopus oocytes assessed as effect on channel currents at -80 mV holding potential at 100 uM by two-electrode voltage clamp assay relative to control
T2 sequence (whole entry): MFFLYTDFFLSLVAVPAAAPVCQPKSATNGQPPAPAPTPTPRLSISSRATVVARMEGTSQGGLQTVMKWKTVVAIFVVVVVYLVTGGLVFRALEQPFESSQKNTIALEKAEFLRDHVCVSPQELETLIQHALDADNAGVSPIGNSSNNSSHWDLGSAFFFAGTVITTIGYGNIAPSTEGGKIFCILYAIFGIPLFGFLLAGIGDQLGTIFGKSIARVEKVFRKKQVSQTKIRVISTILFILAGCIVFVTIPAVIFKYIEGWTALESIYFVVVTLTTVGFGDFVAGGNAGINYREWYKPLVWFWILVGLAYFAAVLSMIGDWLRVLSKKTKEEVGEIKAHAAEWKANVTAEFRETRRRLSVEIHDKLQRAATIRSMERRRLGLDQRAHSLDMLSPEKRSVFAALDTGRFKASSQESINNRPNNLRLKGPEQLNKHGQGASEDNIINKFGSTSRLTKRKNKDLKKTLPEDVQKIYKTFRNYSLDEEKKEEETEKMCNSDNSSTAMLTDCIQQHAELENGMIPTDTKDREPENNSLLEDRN

[8] = target: T2, Potassium channel subfamily K member 10 (Homo sapiens); assay: Activation of K2P10.1 (unknown origin) expressed in Xenopus oocytes assessed as effect on channel currents at -80 mV holding potential by two-electrode voltage clamp assay relative to control
[9] = target: Potassium channel subfamily K member 9 (Homo sapiens) (UniProt Q9NPC2); assay: Activation of K2P9.1 (unknown origin) expressed in Xenopus oocytes assessed as effect on channel currents at -80 mV holding potential at 100 uM by two-electrode voltage clamp assay relative to control
[10] = target: T1, Potassium channel subfamily K member 2 (Homo sapiens); assay: Activation of K2P2.1 (unknown origin) expressed in HEK293T cells assessed as effect on channel currents at -40 mV holding potential by two-electrode voltage clamp assay relative to control
[11] = tested on: Potassium channel subfamily K member 2 (Homo sapiens), O95069 [UNDEFINED MUTATION]; assay: Activation of K2P2.1 W275S mutant (unknown origin) expressed in Xenopus oocytes assessed as effect on channel currents at 50 uM at -80 mV holding potential by two-electrode voltage clamp assay
[12] = target: T3, Potassium channel subfamily K member 5 (Homo sapiens) (UniProt O95279); assay: Activation of K2P5.1 (unknown origin) expressed in Xenopus oocytes assessed as effect on channel currents at -80 mV holding potential at 100 uM by two-electrode voltage clamp assay relative to control
T3 sequence (whole entry): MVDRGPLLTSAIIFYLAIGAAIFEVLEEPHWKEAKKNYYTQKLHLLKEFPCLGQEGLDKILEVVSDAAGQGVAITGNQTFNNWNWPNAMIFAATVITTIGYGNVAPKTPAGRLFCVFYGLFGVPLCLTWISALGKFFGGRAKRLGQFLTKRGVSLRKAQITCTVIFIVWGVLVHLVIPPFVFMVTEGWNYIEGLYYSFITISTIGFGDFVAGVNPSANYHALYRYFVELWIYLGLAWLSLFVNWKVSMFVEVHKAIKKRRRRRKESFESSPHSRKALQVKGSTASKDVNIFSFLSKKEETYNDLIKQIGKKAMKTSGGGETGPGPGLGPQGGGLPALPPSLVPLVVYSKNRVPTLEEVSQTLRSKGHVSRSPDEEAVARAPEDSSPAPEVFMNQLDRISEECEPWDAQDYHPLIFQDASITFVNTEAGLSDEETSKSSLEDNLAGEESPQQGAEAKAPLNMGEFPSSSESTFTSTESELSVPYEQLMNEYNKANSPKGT

[13] = target: Potassium channel subfamily K member 3 (Homo sapiens) (UniProt O14649); assay: Activation of K2P3.1 (unknown origin) expressed in Xenopus oocytes assessed as effect on channel currents at -80 mV holding potential by two-electrode voltage clamp assay relative to control
[14] = target: T1, Potassium channel subfamily K member 2 (Homo sapiens); assay: Activation of K2P2.1 (unknown origin) expressed in HEK293T cell membranes in outside-out patch configuration assessed as effect on channel currents at 20 uM by two-electrode voltage clamp assay relative to control
[15] = tested on: Potassium channel subfamily K member 2 (Homo sapiens), O95069 [UNDEFINED MUTATION]; assay: Activation of K2P2.1 W275S mutant (unknown origin) expressed in Xenopus oocytes assessed as effect on channel currents at -80 mV holding potential by two-electrode voltage clamp assay relative to control
Homo sapiens = organism: Homo sapiens; assay: Activation of K2P2.1 3G mutant (unknown origin) expressed in Xenopus oocytes assessed as effect on channel currents at -80 mV holding potential by two-electrode voltage clamp assay relative to control

Potassium channel subfamily K member 3 (Homo sapiens), sequence (O14649 whole entry, looked up): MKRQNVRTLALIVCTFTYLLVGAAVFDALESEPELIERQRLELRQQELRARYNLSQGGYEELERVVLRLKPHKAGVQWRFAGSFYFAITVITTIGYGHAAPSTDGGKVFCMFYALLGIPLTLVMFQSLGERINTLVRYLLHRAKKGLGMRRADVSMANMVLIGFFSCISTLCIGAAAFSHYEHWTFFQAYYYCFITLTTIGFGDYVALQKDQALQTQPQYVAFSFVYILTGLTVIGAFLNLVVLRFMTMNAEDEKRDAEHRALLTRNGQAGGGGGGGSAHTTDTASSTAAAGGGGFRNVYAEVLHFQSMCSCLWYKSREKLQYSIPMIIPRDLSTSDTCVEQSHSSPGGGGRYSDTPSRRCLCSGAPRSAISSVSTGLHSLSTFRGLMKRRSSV
Potassium channel subfamily K member 9 (Homo sapiens), sequence (Q9NPC2 whole entry): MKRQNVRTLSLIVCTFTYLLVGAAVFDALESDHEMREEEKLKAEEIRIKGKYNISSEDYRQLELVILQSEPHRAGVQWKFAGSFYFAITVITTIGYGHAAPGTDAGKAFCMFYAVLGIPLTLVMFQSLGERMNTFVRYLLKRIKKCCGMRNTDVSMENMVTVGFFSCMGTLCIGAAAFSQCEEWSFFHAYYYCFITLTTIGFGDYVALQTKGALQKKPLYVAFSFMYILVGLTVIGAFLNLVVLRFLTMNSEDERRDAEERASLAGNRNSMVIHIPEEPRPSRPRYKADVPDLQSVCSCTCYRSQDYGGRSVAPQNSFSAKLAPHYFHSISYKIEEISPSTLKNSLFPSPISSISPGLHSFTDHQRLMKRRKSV

TIME [1]: 0.00114 h
Emax [2]: 11.1%
Activity [3]: Active
Emax [4]: 11.1 to 11.4
EC50 [5]: 49.4 µM
T1/2 [6]: 22 s
Emax [7]: 11.4%
Emax [8]: 11.4
Emax [9]: 2%
Emax [10]: 11.4
Activity [11]: inactive
Emax [12]: 1.7%
Emax [13]: 1.1
Activity [14]: Active
Emax [15]: 5.1
Structure (SMILES): CC1(C)c2cc(Cl)ccc2N(CCc2nnn[nH]2)c2ccc(Cl)cc21
Emax (Homo sapiens): 12.9
